The results in this text go back to PMC6934184, “Selective DNA-PKcs inhibition extends the therapeutic index of localized radiotherapy and chemotherapy” (The Journal of Clinical Investigation, 2019).

In the experiment the target is T1, ULK1 (Homo sapiens, UniProt O75385).
T1 construct: purchased Thermo Fisher Scientific (Life Technologies) SelectScreen
Nature of the experiment: SelectScreen LanthaScreen. The experiment is classed as binding. As to conditions: 1 µM. An outline of the steps:
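Percent values come from Thermo SelectScreen profiling of NU5455, combining activity and binding assays. CSF1R was run in Z'LYTE format at Km app ATP, and CAMK1 in Adapta format with ATP listed at 10.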

T1 sequence (O75385 whole entry): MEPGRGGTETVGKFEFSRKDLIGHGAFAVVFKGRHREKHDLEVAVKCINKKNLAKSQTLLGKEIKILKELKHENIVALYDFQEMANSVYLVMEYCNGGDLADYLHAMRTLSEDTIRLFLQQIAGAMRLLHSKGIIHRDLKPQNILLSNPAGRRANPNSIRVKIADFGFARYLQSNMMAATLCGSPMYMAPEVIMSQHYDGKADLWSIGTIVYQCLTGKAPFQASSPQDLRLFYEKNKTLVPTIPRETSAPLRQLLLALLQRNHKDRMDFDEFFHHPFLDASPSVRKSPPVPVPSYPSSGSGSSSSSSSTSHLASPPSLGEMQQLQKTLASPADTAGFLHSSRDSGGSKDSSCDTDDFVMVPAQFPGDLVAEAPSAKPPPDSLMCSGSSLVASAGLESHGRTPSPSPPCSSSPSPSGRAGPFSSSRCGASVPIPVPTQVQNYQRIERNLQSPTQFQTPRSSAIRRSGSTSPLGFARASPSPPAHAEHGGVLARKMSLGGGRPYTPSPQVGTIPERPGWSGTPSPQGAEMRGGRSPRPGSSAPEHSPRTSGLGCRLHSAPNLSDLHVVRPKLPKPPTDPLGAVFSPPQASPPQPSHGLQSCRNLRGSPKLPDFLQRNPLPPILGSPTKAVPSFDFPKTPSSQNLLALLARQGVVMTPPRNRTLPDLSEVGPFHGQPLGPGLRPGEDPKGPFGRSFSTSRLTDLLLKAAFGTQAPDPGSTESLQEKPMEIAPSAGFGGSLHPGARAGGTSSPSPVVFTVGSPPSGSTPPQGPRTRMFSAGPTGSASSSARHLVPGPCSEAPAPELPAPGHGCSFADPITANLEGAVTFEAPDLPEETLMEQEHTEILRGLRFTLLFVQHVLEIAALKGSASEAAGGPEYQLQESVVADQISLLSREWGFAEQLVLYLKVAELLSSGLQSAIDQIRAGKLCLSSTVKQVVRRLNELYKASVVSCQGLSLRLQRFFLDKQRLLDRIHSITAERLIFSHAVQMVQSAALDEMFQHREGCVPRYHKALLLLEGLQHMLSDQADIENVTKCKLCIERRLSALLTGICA

`CN(C(=O)CN1CCOCC1)c1ccc2sc3c(-c4cccc5c(=O)cc(N6CC7CCC(C6)O7)oc45)cccc3c2c1` [NU5455]: the “% displacement” value is 1.8%.
